Measured values reported in US8354265B2, “Chemicals promoting the growth of N-acylhomoserine lactone-degrading bacteria” (Centre National de la Recherche Scientifique, priority 2007, dated 2013).
Entries after “also recorded” stand apart in the source; their conditions may differ.

Experiments:
[1] = tested on: bacteria recovered from the consortia; experiment: NAHL production and inactivation by isolates recovered from the consortia, with rrs identification; format: cell-based; conditions: for NAHL-producing bacteria among isolates of the consortia: 280 isolates from 280 independent enrichments
[2] = tested on: Erwinia carotovora subsp. atroseptica 6276; experiment: Maceration assay on potato tubers (biocontrol activity of consortia); format: in vivo; conditions: potato tubers infected with mix of Erwinia carotovora 6276 and consortia
Source text: FIG. 6: Maceration assay on potato tubers.
(§1) The Mannitol-, 6CL-, GCL-, and HTN-consortia were compared for their capacity to inactivated OC8-HSL, the major NAHL produced by the plant pathogen Erwinia carotovora subsp. atroseptica 6276, as well as for their biocontrol activity against this pathogen in potato maceration assay.

[3] = tested on: bacterial consortia; experiment: Inactivation of C6-HSL and OC8-HSL by mannitol, 6CL, GCL and HTN consortia; format: cell-based
Source text: as §1

[4] = tested on: NAHL-degrading and NAHL-producing bacteria of potato rhizosphere; experiment: Two independent analyses of 6CL and GCL treatments on planted batches (FIG. 7); format: in vivo, Solanum tuberosum var. Allians
Source text: FIG. 7: Percentage of NAHL-degrading and NAHL-producing strains in potato rhizosphere. […] An untreated batch was used as a control in the two independent sets of experiments. The mean of three replicates is shown. Statistically different values (Student t test; 0.05) are noted by different letters.
(§2) The non sterile batches (40×60×8 cm) contained 13 L of the nutritive solution Hydrobloom (Cellmax, UK) with Nitrogen at 0.80 g/L, Phosphore at 0.56 g/L and Potassium at 1.48 g/L as major components. The solution was diluted from a concentrated stock solution (×250) with non sterile water from the public water system. One hundred plants of Solanum tuberosum var. Allians, which were recovered from cultures performed under sterile conditions, were placed into holes (3 cm space to each other) of batch covers. Planted batches were placed in the greenhouse (Comité Nord Plants de Pomme de Terre, Bretteville-du-Grand-Caux) under natural light at 10-15° C. (night) and 25-30° C. (day). […] An untreated batch was used as a control. One gram of roots (fresh weight) was resuspended in 10 mL of sterile MgSO4 10 mM, diluted and spread on TSA and King B plates to isolate total cultivable bacteria and fluorescent Pseudomonas, respectively. Three samples were analyzed from each batch at each time D0, D14 and D28; from each sample, thirty isolates from TSA plates and thirty fluorescent isolates from King B plates were individually tested from production and inactivation of NAHL signal.
(§3) Bacterial isolates grown in 96-microwell plates were individually tested from production of NAHL with the A. tumefaciens biosensor NT1 (pZNLR4) and the inactivation of the C6-HSL signal, as described previously (d'Angelo-Picard et al. 2004).
An untreated batch was used as a control.

[5] = tested on: bacterial consortia originating from rhizospheric soil; experiment: C6-HSL inactivation by bacterial consortia enriched from rhizospheric soil; format: cell-based
[6] = tested on: NAHL-degrading rhizobacteria; experiment: Diversity of NAHL-degrading rhizobacteria after 6CL and GCL treatments, rrs sequencing (Table 2); format: in vivo, Solanum tuberosum; conditions: D14 and D28; 0.1 mL/L
Method: as §2
(§4) The 5′-end of the rrs gene was amplified with primers pA (5′-[…]) (SEQ ID NO:1) and 518r (5′-[…]) (SEQ ID NO:2), and sequenced with pA primer by GenomeExpress (Meylan, France). At least 400 bp were submitted to the NCBI database. Although some sequence comparisons authorized identification of isolates at the species level, only the genus level was retained in this study for homogeneity.
The isolates were identified by rrs-sequencing (Table 2). At D0, most of the NAHL-degrading isolates were identified as Delftia. However, at D14 and D28, the Agrobacterium isolates dominated in untreated batches, while they were not detected in the treated batches. In those, the more frequently counted bacteria were Delftia and Rhodococcus.

[7] = tested on: NAHL-degrading rhizobacteria of potato rhizosphere; experiment: Preliminary experiment in planted hydroponic batches: level and diversity of NAHL-degrading rhizobacteria (Table 1); format: in vivo, Solanum tuberosum var. Allians
Method: as §2, §3
At least 400 bp were submitted to the NCBI database.

[8] = tested on: NAHL-degrading bacteria in the nutritive solution; experiment: Ratio of NAHL-degrading bacteria in unplanted batches of nutritive solution; format: cell-based; conditions: for percentage of NAHL-degrading bacteria in the nutritive solution: without plants
Method: as §2, §3
Allians was evaluated. The plants were cultivated in vitro under sterile conditions, then placed into batches in a greenhouse at Bretteville-du-Grand-Caux (France) in a non-sterile environment. Especially, a non-sterile nutritive solution was used and served as a source of naturally occurring bacteria. […] The ratio of NAHL-degrading bacteria in the nutritive solution was evaluated before the treatment and 14-day later. This percentage increased from 10±2 to 30±2 in the case of the 6CL-treated batch and from 10±2 to 70±2 in the GCL-treated batch. From the 6CL- and GCL-treated batches, 10 NAHL-degrading bacteria were identified by their rrs sequence: 9 belonged to the Delftia genus, the other one to the Rhodococcus genus.

[9] = tested on: bacterial consortia from unplanted soil; experiment: C6-HSL inactivation by bacterial consortia enriched from unplanted soil on the compound as sole carbon source; format: cell-based; conditions: soil and rhizospheric samples; among 25 assayed molecules
[10] = tested on: young plants; conditions: in vivo
[11] = tested on: NAHL-degrading rhizobacteria; experiment: Diversity of NAHL-degrading rhizobacteria after HTN treatments, rrs sequencing (Table 3); format: in vivo, Solanum tuberosum
Source text: as §4
To analyze the impact of HTN on the diversity of NAHL-degrading strains, 50 NAHL-degrading strains were sampled from the third set of experiments, at the beginning of the experiments (D0) and after 14 and 42 days. The isolates were identified by rrs-sequencing (Table 3). At D0, all of the 5 NAHL-degrading isolates analyzed were identified as Agrobacterium. However, at D14 and D42, the Rhodococcus isolates dominated in treated batches, in which Delftia and Sinorhizobium were also detected

[12] = tested on: soil bacterial consortia; experiment: NAHL (C6-HSL, OC8-HSL) inactivation by soil consortia enriched on second set of compounds; format: cell-based; conditions: C6-HSL 25 μM or OC8-HSL 200 nM
Method: FIG. 4: Kinetics of NAHL inactivation by bacterial consortia. (A) NAHL is C6-HSL with an initial concentration of 25 μM (B) NAHL is 3-oxo-octanoylhomoserine lactone (OC8-HSL), with an initial concentration of 200 nM. The different bacterial consortia obtained after enrichment on the indicated compounds as a sole carbon source (mannitol is abbreviated as Man) were tested to for their capacity to inactivate NAHL signal. At each time (0, 1, 3 and 5 hrs), the uninoculated control (C) was used to estimate the percentage of residual NAHL.
Non sterile soil from the CNRS experimental field (Mérantaise) at Gif-sur-Yvette (France) was mixed with sterile sand Loire River and distributed into pots (20 cm in diameter). Some of them were sown with disinfected seeds of Nicotiana tabacum cv. Samson. Pots were randomly placed in the greenhouse (CNRS, Gif-sur-Yvette), under a long day conditions (16 h) at 17° C. (night) and 24° C. (day), and watered daily with tap water. One gram of unplanted or rhizospheric (3-months aged plants) soil was resuspended in 10 mL of sterile 0.8% NaCl. […] After a 3-days incubation at 25° C. under shaking (180 rpm), the cell cultures were diluted (1/50) into fresh AB media for an additional 2-days enrichment step. […]

[13] = tested on: NAHL-degrading bacteria of potato rhizosphere; experiment: HTN treatment on planted batches (FIG. 9); format: in vivo, Solanum tuberosum
Source text: FIG. 9: Percentage of NAHL-degrading and NAHL-producing strains in potato rhizosphere after treatment with HTN. The percentage of NAHL degraders and NAHL producers was estimated among cultivable bacteria (cfu/g of fresh weight of roots), which were recovered from potato rhizospheres before the treatment (D0; white columns), 14 days (D14; dark grey columns), 28 days (D28; black columns) after the first treatment and 42 days after the first treatment, i.e., 14 days after the second treatment (D42; grey columns). The letters indicate statistically different values (Student's t-test; 0.05).
The non sterile batches (40×60×8 cm) contained 13 L of the nutritive solution Hydrobloom (Cellmax, UK) with Nitrogen at 0.80 g/L, Phosphore at 0.56 g/L and Potassium at 1.48 g/L as major components. The solution was diluted from a concentrated stock solution (×250) with non sterile water from the public water system. One hundred plants of Solanum tuberosum var. Allians, which were recovered from cultures performed under sterile conditions, were placed into holes (3 cm space to each other) of batch covers. […] Three samples were analyzed from each batch at each time D0, D14 and D28; from each sample, thirty isolates from TSA plates and thirty fluorescent isolates from King B plates were individually tested from production and inactivation of NAHL signal. […]

[14] = 6CL- and GCL-treated batches together, rrs sequence

## OC[C@@H](O)[C@@H](O)[C@H](O)[C@H](O)CO [Mannitol, mannitol, reference compound]
[1]
  NAHL-producing bacteria among isolates of the consortia: 10 % of the tested strains
[2]
  biocontrol activity of the consortia against E. carotovora 6276: did not

## O=C1CCCCCO1 [6CL, 6-caprolactone, reference compound]
[1]
  NAHL-inactivating bacteria recovered from consortia: recovered
  NAHL-producing bacteria among isolates of the consortia: none
[1]; 6CL and GCL consortia together
  NAHL-degrading isolates related to Chryseobacterium: 10%
  NAHL-degrading isolates related to Delftia: 80 % of the identified strains
  NAHL-degrading isolates related to Ralstonia: 3%
  NAHL-degrading isolates related to Rhodococcus: 7%
[3]
  speed of C6-HSL signal inactivation versus Mannitol consortia: inactivated more rapidly
  speed of OC8-HSL signal inactivation versus Mannitol consortia: inactivated more rapidly
[4]; 0.1 mL/L
  specific effect on the NAHL-degrading bacteria of the rhizosphere: no specific effect
[4]; 0.1 mL/L, during all experiments
  proportion of NAHL-degrading bacteria: remained at a quite similar level
[4]; 6CL 0.1 mL/L, GCL 0.1 and 0.4 mL/L, D14 and D28
  modification of the ratio of NAHL-producing bacteria: no repeatable modification
[5]
  activity of consortia towards C6-HSL (ranking): the most active
[6]
  rrs-identified NAHL-degraders: Delftia: 9
  rrs-identified NAHL-degraders: Others: 2
  rrs-identified NAHL-degraders: Rhizobium: 1
  rrs-identified NAHL-degraders: Rhodococcus: 6
[7]; 0.1 mL/L, 28 days after amendment, planted batches
  increase of the ratio of NAHL-degrading bacteria: not
[7]; D0 (before treatment)
  Log CFU/gram of root (fresh weight): 8.0 ± 7.6 Log CFU/gram of root (fresh we
  NAHL degraders (%): 8.9 ± 1.5 %
  NAHL producers (%): 7.8 ± 1.2%
[7]; D0, of 8 isolates
  rrs-identified NAHL-degraders: Delftia: 7
  rrs-identified NAHL-degraders: Pseudomonas: 1
[7]; D28, 0.1 mL/L
  Log CFU/gram of root (fresh weight): 10.5 ± 10.1 Log CFU/gram of root (fresh we
  NAHL degraders (%): 6.7 ± 1.7 %
  NAHL producers (%): 5.6 ± 0.6%
  identified genera of NAHL-degrading bacteria: 3
[7]; D28, 0.1 mL/L, of 8 isolates
  rrs-identified NAHL-degraders: Agrobacterium: 4
  rrs-identified NAHL-degraders: Delftia: 2
  rrs-identified NAHL-degraders: Pseudomonas: 2
[2]
  biocontrol activity of the consortia against E. carotovora 6276: did not
[8]; [14]
  NAHL-degrading bacteria belonging to the Delftia genus (of 10 identified): 9
  NAHL-degrading bacteria belonging to the Rhodococcus genus (of 10 identified): one
[8]; 14-day after treatment at 1 mL/L
  percentage of NAHL-degrading bacteria in the nutritive solution: 30±2%
[8]; before the treatment
  percentage of NAHL-degrading bacteria in the nutritive solution: 10±2%
[9]
  growth stimulation of NAHL-degrading bacteria after enrichment procedures: stimulated the growth of NAHL-degrading bacteria
[10]
  sensitivity of young plants: sensitive

## CCCC1CCC(=O)O1 (centres unmarked) [HTN, 4-heptanolide]
[1]
  NAHL-inactivating bacteria recovered from consortia: recovered
  NAHL-producing bacteria among isolates of the consortia: none
[1]; HTN consortia, rrs sequence
  NAHL-degrading isolates belonging to the Rhodococcus genus: All seventeen
[3]
  speed of C6-HSL signal inactivation versus Mannitol consortia: inactivated more rapidly
  speed of OC8-HSL signal inactivation versus Mannitol consortia: inactivated more rapidly
[5]
  activity of consortia towards C6-HSL (ranking): the most active
[11]; D14 and D42
  Rhodococcus isolates among NAHL-degrading isolates in treated batches: dominated
[11]; D 14 and D 42, 0.1 mL/L
  rrs-identified NAHL-degraders: Delftia: 1
  rrs-identified NAHL-degraders: Rhodococcus: 16
[11]; D 14 and D 42, 0.4 mL/L
  rrs-identified NAHL-degraders: Rhodococcus: 27
  rrs-identified NAHL-degraders: Sinorhizobium: 1
[12]
  efficiency for obtaining NAHL-degrading consortia (ranking): most efficient
[2]
  biocontrol activity of the consortia against E. carotovora 6276: biocontrol activity was observed; also recorded: showed biocontrol activity
[9]
  growth stimulation of NAHL-degrading bacteria after enrichment procedures: stimulated the growth of NAHL-degrading bacteria
[13]; 0.1 and 0.4 mL/L, second treatment at day 28, D14, D28, D42
  ability to stimulate the growth of NAHL-degrading bacteria: confirmed the ability of HTN to stimulate the growth of NAHL-degrading bacteria
[13]; applied to hydroponic plant cultures (FIG. 9)
  percentage of NAHL-degrading bacteria among total cultivable bacteria: significant increase

## OCC1CCCO1 (centres unmarked) [THA, tetrahydrofurfuryl alcohol]
[1]
  NAHL-inactivating bacteria recovered from consortia: recovered
  NAHL-producing bacteria among isolates of the consortia: 13 % of the tested strains
[5]
  activity of consortia towards C6-HSL (ranking): the most active

## C1CCOC1 [THF, tetrahydrofurane]
[1]
  NAHL-inactivating bacteria recovered from consortia: recovered
  NAHL-producing bacteria among isolates of the consortia: 41 % of the tested strains

## O=C1CCCO1 [GBL, gamma-butyrolactone]
[1]
  NAHL-producing bacteria among isolates of the consortia: 12 % of the tested strains

## CCCCC1CCC(=O)O1 (centres unmarked) [GOL, gamma-octalactone]
[12]
  efficiency for obtaining NAHL-degrading consortia (ranking): most efficient
[9]
  growth stimulation of NAHL-degrading bacteria after enrichment procedures: stimulated the growth of NAHL-degrading bacteria
